Experimental data reported in patent US20240374590A1, “COMPOSITIONS AND METHODS FOR TREATING CANCER” (A2A PHARMACEUTICALS, INC., priority 2021, published 2024).

How the values were obtained:
[1] = system: JIMT-1 human breast cancer cell line; experiment: Cell viability assay (SRB) in JIMT-1; assay type: cell-based; conditions: 72 hours after treatment, read-out: JIMT1 IC50
Method in brief: (§1)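 JIMT-1 (3×10^3 cells/well) and HCT-116 (4×10^3 cells/well) cells were seeded and treated with inhibitors at several concentrations 24 h later. Viability was read by sulforhodamine B staining 72 h after treatment. JIMT-1 was grown in DMEM and HCT-116 in McCoy's 5A, both with FBS.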

[2] = system: HCT-116 human colon carcinoma cell line; experiment: Cell viability assay (SRB) in HCT-116; assay type: cell-based; conditions: 72 hours after treatment, read-out: HCT116 IC50
Method in brief: as §1

Compound | IC50 [1] | IC50 [2]
FC(F)Oc1ccc(-c2cc(Nc3ccnc(N4CCCC4)n3)[nH]n2)cc1 [Compound 242, N-(3-(4-(difluoromethoxy)phenyl)-1H-pyrazol-5-yl)-2-(pyrrolidin-1-yl)pyrimidin-4-amine] | 0.11 µM | 1.49 µM
FC(F)Oc1ccc(-c2cc(Nc3ccnc(N4CCC(F)(F)CC4)n3)[nH]n2)cc1 [Compound 253, N-(3-(4-(difluoromethoxy)phenyl)-1H-pyrazol-5-yl)-2-(4,4-difluoropiperidin-1-yl)pyrimidin-4-amine] | 0.148 µM | 1.56 µM
COc1ccc(-c2cc(Nc3ccnc(N4CCOC(C)C4)n3)[nH]n2)cc1F (stereo not drawn) [Compound 94, N-(3-(3-fluoro-4-methoxyphenyl)-1H-pyrazol-5-yl)-2-(2-methylmorpholino)pyrimidin-4-amine] | 0.029 µM | 0.046 µM
COc1ccc(-c2cc(Nc3ccnc(N4CCOCC4)n3)n(C)n2)cc1 [Compound 184, N-(3-(4-methoxyphenyl)-1-methyl-1H-pyrazol-5-yl)-2-morpholinopyrimidin-4-amine] | 8.79 µM | 20 µM
COc1ccc(-c2cc(Nc3ccnc(N4CC5CC5C4)n3)[nH]n2)c(F)c1 (stereo not drawn) [Compound 141, 2-(3-azabicyclo[3.1.0]hexan-3-yl)-N-(3-(2-fluoro-4-methoxyphenyl)-1H-pyrazol-5-yl)pyrimidin-4-amine] | 0.041 µM | 0.163 µM
COc1ccc(-c2cc(Nc3ccnc(N4C[C@@H](C)O[C@@H](C)C4)n3)nn2C)c(F)c1 [Compound 190, 2-((2R,6S)-2,6-dimethylmorpholino)-N-(5-(2-fluoro-4-methoxyphenyl)-1-methyl-1H-pyrazol-3-yl)pyrimidin-4-amine] | 0.251 µM | 0.484 µM
COc1ccc(-c2cc(Nc3ccnc(N4CCC(F)CC4)n3)[nH]n2)c(F)c1 [Compound 131, N-(3-(2-fluoro-4-methoxyphenyl)-1H-pyrazol-5-yl)-2-(4-fluoropiperidin-1-yl)pyrimidin-4-amine] | 0.053 µM | 0.047 µM
COc1ccc(-c2cc(Nc3ccnc(N4CC(C)(C)OC(C)(C)C4)n3)[nH]n2)c(F)c1 [Compound 133, N-(3-(2-fluoro-4-methoxyphenyl)-1H-pyrazol-5-yl)-2-(2,2,6,6-tetramethylmorpholino)pyrimidin-4-amine] | 0.606 µM | 6.56 µM
COc1ccc(-c2cc(Nc3ccnc(N4C[C@@H](C)O[C@@H](C)C4)n3)[nH]n2)cc1F [Compound 86b, 2-((2R,6S)-2,6-dimethylmorpholino)-N-(3-(3-fluoro-4-methoxyphenyl)-1H-pyrazol-5-yl)pyrimidin-4-amine] | 0.007 µM | 0.005 µM
COc1ccc(-c2cc(Nc3ccnc(C4=CCOCC4)n3)[nH]n2)c(F)c1 [Compound 317, 2-(3,6-dihydro-2H-pyran-4-yl)-N-(3-(2-fluoro-4-methoxyphenyl)-1H-pyrazol-5-yl)pyrimidin-4-amine] | 0.012 µM | 0.024 µM
COc1ccc(-c2cc(Nc3ccnc(N4CCOCC4C)n3)[nH]n2)c(F)c1 (stereo not drawn) [Compound 138, N-(3-(2-fluoro-4-methoxyphenyl)-1H-pyrazol-5-yl)-2-(3-methylmorpholino)pyrimidin-4-amine] | 0.015 µM | 0.052 µM
FC(F)Oc1ccc(-c2cc(Nc3ccnc(N4C5CCC4COC5)n3)[nH]n2)cc1 [Compound 259, 2-(3-oxa-8-azabicyclo[3.2.1]octan-8-yl)-N-(3-(4-(difluoromethoxy)phenyl)-1H-pyrazol-5-yl)pyrimidin-4-amine] | 0.065 µM | ≥ 10 µM
C[C@@H]1CN(c2nccc(Nc3cc(-c4ccc(OC(F)F)cc4)n[nH]3)n2)C[C@H](C)O1 [Compound 201, N-(3-(4-(difluoromethoxy)phenyl)-1H-pyrazol-5-yl)-2-((2R,6S)-2,6-dimethylmorpholino)pyrimidin-4-amine] | 0.076 µM | 0.091 µM
C[C@@H]1CN(c2nccc(Nc3cc(-c4ccc5c(ccn5C)c4)n[nH]3)n2)C[C@H](C)O1 [Compound 217, 2-((2R,6S)-2,6-dimethylmorpholino)-N-(3-(1-methyl-1H-indol-5-yl)-1H-pyrazol-5-yl)pyrimidin-4-amine] | 0.006 µM | 0.005 µM
C[C@@H]1CN(c2nccc(Nc3cc(-c4ccc5occc5c4)n[nH]3)n2)C[C@H](C)O1 [Compound 205, N-(3-(benzofuran-5-yl)-1H-pyrazol-5-yl)-2-((2R,6S)-2,6-dimethylmorpholino)pyrimidin-4-amine] | 0.027 µM | 0.096 µM
FC(F)Oc1ccc(-c2cc(Nc3ccnc(N4CCCCC4)n3)[nH]n2)cc1 [Compound 243, N-(3-(4-(difluoromethoxy)phenyl)-1H-pyrazol-5-yl)-2-(piperidin-1-yl)pyrimidin-4-amine] | 0.017 µM | 0.053 µM
C[C@@H]1CN(c2nccc(Nc3cc(-c4ccc(OC(F)(F)F)c(Cl)c4)n[nH]3)n2)C[C@H](C)O1 [Compound 192b, N-(3-(3-chloro-4-(trifluoromethoxy)phenyl)-1H-pyrazol-5-yl)-2-((2R,6S)-2,6-dimethylmorpholino)pyrimidin-4-amine] | 4.64 µM | 8.97 µM
CC1CCCN1c1ncc(F)c(Nc2cc(-c3ccc(OC(F)F)cc3)n[nH]2)n1 (stereo not drawn) [Compound 290, N-(3-(4-(difluoromethoxy)phenyl)-1H-pyrazol-5-yl)-5-fluoro-2-(2-methylpyrrolidin-1-yl)pyrimidin-4-amine] | 0.278 µM | 0.337 µM
COc1ccc(-c2cc(Nc3ccnc(N4C(C)COCC4C)n3)[nH]n2)c(F)c1 (stereo not drawn) [Compound 136, 2-(3,5-dimethylmorpholino)-N-(3-(2-fluoro-4-methoxyphenyl)-1H-pyrazol-5-yl)pyrimidin-4-amine] | 0.895 µM | 1.3 µM
FC(F)Oc1ccc(-c2cc(Nc3ccnc(N4CCC(F)(F)C4)n3)[nH]n2)cc1 [Compound 252, N-(3-(4-(difluoromethoxy)phenyl)-1H-pyrazol-5-yl)-2-(3,3-difluoropyrrolidin-1-yl)pyrimidin-4-amine] | 0.122 µM | 1.26 µM
COc1ccc(-c2cc(Nc3ccnc(N4CCOC(C)(C)C4)n3)[nH]n2)c(F)c1 [Compound 135, 2-(2,2-dimethylmorpholino)-N-(3-(2-fluoro-4-methoxyphenyl)-1H-pyrazol-5-yl)pyrimidin-4-amine] | 0.23 µM | 0.88 µM
C[C@@H]1CN(c2ncnc(Nc3cc(-c4ccc(OC(F)F)cc4)n[nH]3)n2)C[C@H](C)O1 [Compound 310, N-(3-(4-(difluoromethoxy)phenyl)-1H-pyrazol-5-yl)-4-((2R,6S)-2,6-dimethylmorpholino)-1,3,5-triazin-2-amine] | 2.35 µM | 2.96 µM
CC1COCC(C)N1c1nccc(Nc2cc(-c3ccc(OC(F)F)cc3)n[nH]2)n1 (stereo not drawn) [Compound 227, N-(3-(4-(difluoromethoxy)phenyl)-1H-pyrazol-5-yl)-2-(3,5-dimethylmorpholino)pyrimidin-4-amine] | 1.43 µM | 2.26 µM
CC1CN(c2nccc(Nc3cc(-c4ccc(OC(F)F)cc4)n[nH]3)n2)C1 [Compound 245, N-(3-(4-(difluoromethoxy)phenyl)-1H-pyrazol-5-yl)-2-(3-methylazetidin-1-yl)pyrimidin-4-amine] | 0.047 µM | ≥ 10 µM
